Test results from publication PMC10850501 (Nature Communications, 2024).
Where two headings read alike, the source gives them in different places. Peptide text beside a SMILES is read from it.

Tests used:
[1] = Ultracentrifugation pellet / solid-state NMR of assemblies; format: physicochemical; settings: 10 mg/mL, 150,000 RCF, 30 minutes, 4 °C
Description: To experimentally validate E1:ESBP3 peptide mixtures, solid-state NMR experiments were pursued. ^13C solid-state NMR measurements were conducted using cross-polarization magic angle spinning (^1H-^13C CPMAS) to evaluate sample structural order and structural differences between samples. The peptides were not isotopically enriched, so the ^13C signal was from the 1% natural abundance for ^13C.
After peptide dissolution at 10 mg/mL, the samples were concentrated by ultracentrifugation for 30 minutes in Bruker 3.22 mm NMR rotors at 4 °C and 150,000 RCF in Ultra-clear tubes of SW-41 Ti swinging bucket rotor fitted onto a Beckman Optima XPN-100 centrifuge. A 11.75 T magnet Bruker Avance III HD 500 spectrometer (500 MHz, ^1H NMR Larmor frequency) equipped with a room temperature 3.2 mm Bruker Low-E ^1H/^13C/^15N NMR probe was used for measurements. ^13C chemical shift referencing was conducted using adamantane referenced to tetramethylsilane. 1D ^13C cross-polarization magic angle spinning (CPMAS) spectra were collected using the standard Bruker cp pulse sequence. A 10 kHz magic angle spinning speed was used for all samples. The channels frequency for the optimization of the Hartmann-Hahn condition for ^1H and ^13C are 500.133 MHz and 125.771 MHz, respectively. A recycle delay time of 4 seconds (d1) and dwell time of 5 μs (DW) were used. Acquisition time was set to 10.24 ms. […]

[2] = system: SARS-CoV-2 live virus (B.1 lineage), Vero E6 cells; format: cell-based
Cytocompatibility (CCK8) = format: cell-based, human; settings: human, A549 cells, read-out: cytocompatibility, normalized to serum free media; for viability at 6 h, 10 µM: 0.01 mM peptide; for viability at 6 h, 100 µM: 0.1 mM peptide; for viability at 6 h, 1000 µM: 1 mM peptide
Description: Cytocompatibility of the peptides was evaluated at 1, 0.1, and 0.01 mM with A549 cells (ATCC CCL-185) cultured in complete media consisting of 90% F-12K and 10% FBS. The A549 cells were utilized after their first passage and seeded at 10,000 cells/well in a 96-well plate for 24 hours. The conditions were prepared in serum-free A549 media and introduced into the wells for 6 hours, after which the condition media were aspirated, the wells were washed once with PBS, and 10 µL of CCK8 was added to 100 µL of PBS[32]. The plate was incubated for 1 hour and read on a Tecan M200 Infinite plate reader at an absorbance of 450 nm with a reference wavelength of 650 nm. The results were analyzed and normalized to the serum-free media control[28],[32],[76].

[3] = molecular target: the molecule itself; assay: co-sedimentation + other: solid-state NMR (1H-13C CPMAS)

| Molecule | ultracentrifuge pellet (assembly into nanofibers) [1] | Comparative, Average [2] | live virus plaque inhibition, in words [2] | viability at 6 h, 10 µM (Cytocompatibility (CCK8); replicate 1, CCK8, 6 h) [%] | viability at 6 h, 10 µM (Cytocompatibility (CCK8); replicate 2, CCK8, 6 h) [%] | viability at 6 h, 100 µM (Cytocompatibility (CCK8); replicate 1, CCK8, 6 h) [%] | viability at 6 h, 100 µM (Cytocompatibility (CCK8); replicate 2, CCK8, 6 h) [%] | viability at 6 h, 100 µM (Cytocompatibility (CCK8); replicate 3, CCK8, 6 h) [%] | viability at 6 h, 1000 µM (Cytocompatibility (CCK8); replicate 1, CCK8, 6 h exposure, absorbance 450 nm) [%] | viability at 6 h, 1000 µM (Cytocompatibility (CCK8); replicate 2, CCK8, 6 h) [%] | viability at 6 h, 1000 µM (Cytocompatibility (CCK8); replicate 3, CCK8, 6 h) [%] | binding result [3] |
| --- | --- | --- | --- | --- | --- | --- | --- | --- | --- | --- | --- | --- |
| CC(=O)N[C@@H](CCC(=O)O)C(=O)N[C@@H](CO)C(=O)N[C@@H](CC(C)C)C(=O)N[C@@H](CO)C(=O)N[C@@H](CC(C)C)C(=O)N[C@@H](CO)C(=O)N[C@@H](CC(C)C)C(=O)N[C@@H](CO)C(=O)N[C@@H](CC(C)C)C(=O)N[C@@H](CO)C(=O)N[C@@H](CC(C)C)C(=O)N[C@@H](CO)C(=O)N[C@@H](CC(C)C)C(=O)N[C@@H](CCC(=O)O)C(N)=O [E1] (Ac-ESLSLSLSLSLSLE-NH2) | centrifuge pellets | 65.5306 | no major differences | 117 | 122 | 111 | 147 | 117 | 169 | 195 | 139 | – |
| Ac-ESLSLSLSLSLSLE-NH2 (also called E-(SL)6-E; E-flanked SAP) [E1 self-assembling peptide (E-SLSLSLSLSLSL-E)] | – | – | – | – | – | – | – | – | – | – | – | binds |
